According to patent US10563263B2, “Genetic polymorphisms associated with statin response and cardiovascular diseases, methods of detection and uses thereof” (CELERA CORPORATION, priority 2010, dated 2020):

System: stroke or transient ischemic attack (TIA)
Assay: CARE: stroke (including TIA) statin response by SNP genotype, hazard ratio pravastatin vs placebo (Tables 20-21)
Assay type: in vivo, human
Conditions: for EVENTS_RESP (total number of stroke or TIA events): CARE pravastatin arm; for HR_RESP (hazard ratio pravastatin vs placebo, stroke) / HR_RESP (hazard ratio, pravastatin-treated vs placebo-treated): CARE; for HR_RESP (hazard ratio pravastatin vs placebo, stroke): ref = placebo; for HR_RESP (hazard ratio, pravastatin-treated vs placebo-treated): stroke or TIA, pravastatin 40 mg/day
Description: Tables 20-21 provides SNPs associated with stroke risk and/or stroke statin response (reduction in stroke risk by statin treatment) in the CARE sample set. Consistent with the CARE trial, the stroke endpoint in the analysis for which the results are provided in Tables 20-21 included stroke as well as transient ischemic attack (TIA).
In Tables 20-22, certain columns are labeled “RESP”, “PLACEBO, OR “ALL”. “RESP” is for statin response as measured by comparing risk (risk for stroke, including TIA, in Tables 20-21, and risk for CHD, specifically recurrent MI, in Table 22) in the pravastatin-treated group with risk in the placebo-treated group, “PLACEBO” is the placebo-treated group, and “ALL” is the combination of the placebo-treated group and the pravastatin-treated group. “RESP” is the analysis to assess statin response in the indicated genotype group.
“EVENTS” indicates the total number of events (stroke or TIA for Tables 20-21, and recurrent MI for Table 22) in individuals with the indicated genotype.
“HR” indicates the hazard ratio.
CARE was a secondary prevention trial and WOSCOPS was a primary prevention trial.
Table 20 provides SNPs associated with stroke risk and/or stroke statin response in the CARE sample set. For example, SNPs rs10757278 and rs1333049 at chromosomal location 9p21 were associated with a reduction of stroke events by statin treatment in CARE, particularly for heterozygotes (see Table 20). Furthermore, SNPs rs12425791 and rs11833579 at chromosomal location 12p13 near the NINJ2 gene were associated with stroke risk in the placebo arm of CARE (see Table 20). […] Consistent with the CARE trial, the stroke endpoint in the analysis for which the results are provided in Tables 20-21 included stroke as well as transient ischemic attack (TIA).
Fine-mapping at the chromosome 12p13 locus was carried out by selecting 77 tagging SNPs from a 400 kb region of the chromosome 12p13 locus which covered the NINJ2 gene and other genes, genotyping these 77 SNPs, and further imputing the genotypes of approximately 250 additional SNPs in this region, for individuals in the CARE study. Analyzing these fine-mapping SNPs for association with stroke risk in the placebo arm of CARE and for stroke statin response in CARE identified SNP rs873134 in the B4GALNT3 gene in the chromosome 12p13 region near NINJ2 (see Table 21).

## CC[C@H](C)C(=O)O[C@H]1C[C@H](O)C=C2C=C[C@H](C)[C@H](CC[C@@H](O)C[C@@H](O)CC(=O)O)[C@H]21 [Pravastatin, pravastatin]
rs873134 genotype CC, MODE GEN, of 354 individuals
  EVENTS_RESP (total number of stroke or TIA events): 27
rs873134 genotype CT + CC, MODE DOM, of 1034 individuals
  EVENTS_RESP (total number of stroke or TIA events): 51
rs873134 genotype CT + TT, MODE REC, of 1046 individuals
  EVENTS_RESP (total number of stroke or TIA events): 40
rs873134 genotype CT, MODE GEN, of 680 individuals
  EVENTS_RESP (total number of stroke or TIA events): 24
rs873134 genotype TT, MODE GEN, of 366 individuals
  EVENTS_RESP (total number of stroke or TIA events): 16
rs1333049 (hCV1754666, 9p21), MODE DOM, genotype GC + GG
  HR_RESP (hazard ratio pravastatin vs placebo, stroke): 0.63
rs1333049 (hCV1754666, 9p21), MODE GEN, genotype CC
  HR_RESP (hazard ratio pravastatin vs placebo, stroke): 1.11
rs1333049 (hCV1754666, 9p21), MODE GEN, genotype GC
  HR_RESP (hazard ratio pravastatin vs placebo, stroke): 0.54
rs1333049 (hCV1754666, 9p21), MODE GEN, genotype GG
  HR_RESP (hazard ratio pravastatin vs placebo, stroke): 0.96
rs1333049 (hCV1754666, 9p21), MODE REC, genotype GC + CC
  HR_RESP (hazard ratio pravastatin vs placebo, stroke): 0.7
rs10757278 (hCV11841860, 9p21), MODE DOM, genotype GA + GG
  HR_RESP (hazard ratio pravastatin vs placebo, stroke): 0.7
rs10757278 (hCV11841860, 9p21), MODE GEN, genotype AA
  HR_RESP (hazard ratio pravastatin vs placebo, stroke): 0.9
rs10757278 (hCV11841860, 9p21), MODE GEN, genotype GA
  HR_RESP (hazard ratio pravastatin vs placebo, stroke): 0.54
rs10757278 (hCV11841860, 9p21), MODE GEN, genotype GG
  HR_RESP (hazard ratio pravastatin vs placebo, stroke): 1.08
rs10757278 (hCV11841860, 9p21), MODE REC, genotype GA + AA
  HR_RESP (hazard ratio pravastatin vs placebo, stroke): 0.62
rs11833579 (hCV1665834, 12p13), MODE DOM, genotype AG + AA
  HR_RESP (hazard ratio pravastatin vs placebo, stroke): 0.64
rs11833579 (hCV1665834, 12p13), MODE GEN, genotype AA
  HR_RESP (hazard ratio pravastatin vs placebo, stroke): 0.26
rs11833579 (hCV1665834, 12p13), MODE GEN, genotype AG
  HR_RESP (hazard ratio pravastatin vs placebo, stroke): 0.75
rs11833579 (hCV1665834, 12p13), MODE GEN, genotype GG
  HR_RESP (hazard ratio pravastatin vs placebo, stroke): 0.86
rs11833579 (hCV1665834, 12p13), MODE REC, genotype AG + GG
  HR_RESP (hazard ratio pravastatin vs placebo, stroke): 0.81
rs12425791 (hCV12094896, 12p13), MODE DOM, genotype AG + AA
  HR_RESP (hazard ratio pravastatin vs placebo, stroke): 0.52
rs12425791 (hCV12094896, 12p13), MODE GEN, genotype AA
  HR_RESP (hazard ratio pravastatin vs placebo, stroke): 0.28
rs12425791 (hCV12094896, 12p13), MODE GEN, genotype AG
  HR_RESP (hazard ratio pravastatin vs placebo, stroke): 0.56
rs12425791 (hCV12094896, 12p13), MODE GEN, genotype GG
  HR_RESP (hazard ratio pravastatin vs placebo, stroke): 0.95
rs12425791 (hCV12094896, 12p13), MODE REC, genotype AG + GG
  HR_RESP (hazard ratio pravastatin vs placebo, stroke): 0.78
rs873134 (hCV2652047) genotype CC, MODE GEN
  HR_RESP (hazard ratio, pravastatin-treated vs placebo-treated): 2.01
rs873134 (hCV2652047) genotype CT + CC, MODE DOM
  HR_RESP (hazard ratio, pravastatin-treated vs placebo-treated): 0.83
rs873134 (hCV2652047) genotype CT + TT, MODE REC
  HR_RESP (hazard ratio, pravastatin-treated vs placebo-treated): 0.52
rs873134 (hCV2652047) genotype CT, MODE GEN
  HR_RESP (hazard ratio, pravastatin-treated vs placebo-treated): 0.5
rs873134 (hCV2652047) genotype TT, MODE GEN
  HR_RESP (hazard ratio, pravastatin-treated vs placebo-treated): 0.54
